Test results published in patent US9000007B2, “5-benzylaminomethyl-6-aminopyrazolo [3, 4 -B] pyridine derivatives as cholesteryl ester-transfer protein (CETP) inhibitors useful for the treatment of atherosclerosis” (Dr. Reddy's Laboratories, Ltd., priority 2011, dated 2015).
pIC50: −log10 of the molar value.

What follows are compounds tested against T1, recombinant CETP enzyme (rCETP) (Homo sapiens, UniProt P11597) (assay: In vitro CETP inhibition assay, fluorometric kit (ROAR Biomedicals)). Conditions: rCETP 50 ng, 37° C. for 90 minutes, fluorescence Ex 492 nm / Em 516 nm.
T1 construct: purchased ROAR Biomedicals, USA
T1 sequence (P11597 18-493): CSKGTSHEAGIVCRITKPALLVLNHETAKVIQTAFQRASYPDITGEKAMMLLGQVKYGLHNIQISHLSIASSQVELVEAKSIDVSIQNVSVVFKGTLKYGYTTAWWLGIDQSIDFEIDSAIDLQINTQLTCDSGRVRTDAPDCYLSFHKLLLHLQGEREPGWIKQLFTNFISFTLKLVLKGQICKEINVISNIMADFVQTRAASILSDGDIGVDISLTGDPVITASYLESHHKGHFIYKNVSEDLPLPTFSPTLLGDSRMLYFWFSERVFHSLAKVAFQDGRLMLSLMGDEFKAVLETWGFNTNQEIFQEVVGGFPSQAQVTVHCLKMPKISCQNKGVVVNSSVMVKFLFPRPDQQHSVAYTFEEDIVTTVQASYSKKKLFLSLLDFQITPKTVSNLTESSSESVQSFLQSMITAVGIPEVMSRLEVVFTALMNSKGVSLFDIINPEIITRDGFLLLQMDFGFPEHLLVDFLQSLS
Format: biochemical
Description: Determination of in Vitro CETP Activity Using Fluorometric Technique
An in vitro cholesteryl ester transfer protein inhibition (CETP) assay using a commercially available fluorometric assay kit from ROAR Biomedicals, USA was used to measure the CETP inhibition activity of the compounds of this application. This assay kit uses a donor molecule containing a fluorescent self-quenched neutral lipid that is transferred to an acceptor molecule in the presence of recombinant CETP enzyme (rCETP). The CETP-mediated transfer of the fluorescent neutral lipid to the acceptor molecule results in an increase in fluorescence (Excitation: 492 nm; Emission: 516 nm).
20 mM stock solutions of compounds were prepared in 100% DMSO and further dilutions were made such that the final concentration of DMSO in the reaction mix was 1%. […] The assay was performed in 96 well microplates and in each well, the reaction mixture contained 190 μl of assay buffer (150 mM NaCl, 10 mM Tris and 2 mM EDTA, pH-7.4), 4 μl of donor particle, 4 μl of acceptor particle, rCETP (50 ng) and 2 μl of test compound at varying final concentration of 0.1, 1, 10, 100, 1000 & 10000 nM. Two control reactions were performed, one without test compound (positive control) and the other without the rCETP (negative control). The reactions were incubated at 37° C. for 90 minutes and the reaction plate was transferred to a PCR machine MX3005P and the fluorescence units (FLU) were quantified (Excitation: 492 nm; Emission: 516 nm).
The negative control values were subtracted from the positive control as well as all the test values to correct for background fluorescence. The percentage inhibition of activity was calculated by using the following equation: % Inhibition of CETP activity=[100−(100×(FLU in test/FLU in positive control))].
The half maximal inhibitory concentration (IC50) was determined using the BIOGRAPH software (version no. 3.3).

Going from `Cc1nn(C(C)(C)C)c2nc(N(CC3CC3)CC3CC3)c(CN(Cc3cc(C(F)(F)F)cc(C(F)(F)F)c3)c3ncc(NC(=O)C(C)C)cn3)cc12` [Example 1, N-(2-(((6-(bis(cyclopropylmethyl)amino)-1-(tert-butyl)-3-methyl-1H-pyrazolo[3,4-b]pyridin-5-yl)methyl)(3,5-bis(trifluoromethyl)benzyl)amino)pyrimidin-5-yl) isobutyramide] to `Cc1nn(C(C)(C)C)c2nc(N(CC3CC3)CC3CC3)c(CN(Cc3cc(C(F)(F)F)cc(C(F)(F)F)c3)c3ncc(NC(=O)C4CC4)cn3)cc12` [Example 3, N-(2-(((6-(bis(cyclopropylmethyl)amino)-1-(tert-butyl)-3-methyl-1H-pyrazolo[3,4-b]pyridin-5-yl)methyl)(3,5-bis(trifluoromethyl)benzyl)amino)pyrimidin-5-yl)cyclopropanecarboxamide], the pIC50 rises from 7.19 to 7.46 (0.27 log units).

Going from `Cc1nn(C(C)(C)C)c2nc(N(CC3CC3)CC3CC3)c(CN(Cc3cc(C(F)(F)F)cc(C(F)(F)F)c3)c3ccc(C4CC4)cn3)cc12` [Example 2, 5-(((3,5-Bis(trifluoromethyl)benzyl)(5-cyclopropylpyridin-2-yl)amino)methyl)-1-(tert-butyl)-N,N-bis(cyclopropylmethyl)-3-methyl-1H-pyrazolo[3,4-b]pyridin-6-amine] to `Cc1nn(C(C)(C)C)c2nc(N(CC3CC3)CC3CC3)c(CN(Cc3cc(C(F)(F)F)cc(C(F)(F)F)c3)c3ncc(C#N)cn3)cc12` [Example 10, 2-(((6-(bis(cyclopropylmethyl)amino)-1-(tert-butyl)-3-methyl-1H-pyrazolo[3,4-b]pyridin-5-yl)methyl)(3,5-bis(trifluoromethyl)benzyl)amino)pyrimidine-5-carbonitrile], the pIC50 falls from 7.11 to 5.90 (1.21 log units). The first is the more potent here.

Going from `CC(=O)c1cnc(N(Cc2cc(C(F)(F)F)cc(C(F)(F)F)c2)Cc2cc3c(C)nn(C)c3nc2N(CC2CC2)CC2CC2)nc1` [Example 4, 1-(2-(((6-(bis(cyclopropylmethyl)amino)-1,3-dimethyl-1H-pyrazolo[3,4-b]pyridin-5-yl)methyl)(3,5-bis(trifluoromethyl)benzyl)amino)pyrimidin-5-yl)ethanone] to `CC(=O)c1cnc(N(Cc2cc(C(F)(F)F)cc(C(F)(F)F)c2)Cc2cc3c(C)nn(C(C)(C)C)c3nc2N(CC2CC2)CC2CC2)nc1` [Example 5, 1-(2-(((6-(bis(cyclopropylmethyl)amino)-1-(tert-butyl)-3-methyl-1H-pyrazolo[3,4-b]pyridin-5-yl)methyl)(3,5-bis(trifluoromethyl)benzyl)amino)pyrimidin-5-yl)ethanone], the pIC50 falls from 8.24 to 7.38 (0.86 log units). The first is the more potent here.

Going from `Cc1nn(C(C)(C)C)c2nc(N(CC3CC3)CC3CC3)c(CN(Cc3cc(C(F)(F)F)cc(C(F)(F)F)c3)c3ncc(-c4ccon4)cn3)cc12` [Example 7] to `Cc1nn(C(C)(C)C)c2nc(N(CC3CC3)CC3CC3)c(CN(Cc3cc(C(F)(F)F)cc(C(F)(F)F)c3)c3ncc(-c4cc[nH]n4)cn3)cc12` [Example 8, 5-(((5-(1H-pyrazol-3-yl)pyrimidin-2-yl)(3,5-bis(trifluoromethyl)benzyl)amino)methyl)-1-(tert-butyl)-N,N-bis(cyclopropylmethyl)-3-methyl-1H-pyrazolo[3,4-b]pyridin-6-amine], the pIC50 falls from 8.03 to 7.57 (0.46 log units).

Going from `Cc1nn(C(C)(C)C)c2nc(N(CC3CC3)CC3CC3)c(CN(Cc3cc(C(F)(F)F)cc(C(F)(F)F)c3)c3ncc(-c4ccn(C)n4)cn3)cc12` [Example 9, 5-(((3,5-Bis(trifluoromethyl)benzyl)(5-(1-methyl-1H-pyrazol-3-yl)pyrimidin-2-yl)amino)methyl)-1-(tert-butyl)-N,N-bis(cyclopropylmethyl)-3-methyl-1H-pyrazolo[3,4-b]pyridin-6-amine] to `Cc1nn(C(C)(C)C)c2nc(N(CC3CC3)CC3CC3)c(CN(Cc3cc(C(F)(F)F)cc(C(F)(F)F)c3)c3ncc(C(N)=O)cn3)cc12` [Example 11, 2-(((6-(bis(cyclopropylmethyl)amino)-1-(tert-butyl)-3-methyl-1H-pyrazolo[3,4-b]pyridin-5-yl)methyl)(3,5-bis(trifluoromethyl)benzyl)amino)pyrimidine-5-carboxamide], the pIC50 rises from 7.00 to 7.74 (0.74 log units). The second is the more potent here.

First: Cc1nn(C(C)(C)C)c2nc(N(CC3CC3)CC3CC3)c(CN(Cc3cc(C(F)(F)F)cc(C(F)(F)F)c3)c3ncc(C(=O)N(C)C)cn3)cc12 [Example 12, 2-(((6-(bis(cyclopropylmethyl)amino)-1-(tert-butyl)-3-methyl-1H-pyrazolo[3,4-b]pyridin-5-yl)methyl)(3,5-bis(trifluoromethyl)benzyl)amino)-N,N-dimethylpyrimidine-5-carboxamide]
Second: Cc1nn(C(C)(C)C)c2nc(N(CC3CC3)CC3CC3)c(CN(Cc3cc(C(F)(F)F)cc(C(F)(F)F)c3)c3ncc(C(=O)O)cn3)cc12 [Example 20, 2-(((6-(Bis(cyclopropylmethyl)amino)-1-(tert-butyl)-3-methyl-1H-pyrazolo[3,4-b]pyridin-5-yl)methyl)(3,5-bis(trifluoromethyl)benzyl)amino)pyrimidine-5-carboxylic acid]
The pIC50 of the first is 0.54 log units lower: 6.67 for the first, 7.21 for the second.

Compared with `Cc1nn(C(C)(C)C)c2nc(N(CC3CC3)CC3CC3)c(CN(Cc3cc(C(F)(F)F)cc(C(F)(F)F)c3)c3ncc(N4CCOC4=O)cn3)cc12` [Example 13, 3-(2-(((6-(bis(cyclopropylmethyl)amino)-1-(tert-butyl)-3-methyl-1H-pyrazolo[3,4-b]pyridin-5-yl)methyl)(3,5-bis(trifluoromethyl)benzyl)amino)pyrimidin-5-yl)oxazolidin-2-one], `Cc1nn(C(C)(C)C)c2nc(N(CC3CC3)CC3CC3)c(CN(Cc3cc(C(F)(F)F)cc(C(F)(F)F)c3)c3ncc(N4CCCC4=O)cn3)cc12` [Example 16, 1-(2-(((6-(Bis(cyclopropylmethyl)amino)-1-(tert-butyl)-3-methyl-1H-pyrazolo[3,4-b]pyridin-5-yl)methyl)(3,5-bis(trifluoromethyl)benzyl)amino)pyrimidin-5-yl)pyrrolidin-2-one] is 0.75 log units lower in pIC50: 8.00 for the first, 7.25 for the second. The first is the more potent here.

`Cc1nn(C(C)(C)C)c2nc(N(CC3CC3)CC3CC3)c(CN(Cc3cc(C(F)(F)F)cc(C(F)(F)F)c3)c3ncc(N4CCOCC4)cn3)cc12` [Example 14, 5-(((3,5-Bis(trifluoromethyl)benzyl)(5-morpholinopyrimidin-2-yl)amino)methyl)-1-(tert-butyl)-N,N-bis(cyclopropylmethyl)-3-methyl-1H-pyrazolo[3,4-b]pyridin-6-amine] and `Cc1nn(C)c2nc(N(CC3CC3)CC3CC3)c(CN(Cc3cc(C(F)(F)F)cc(C(F)(F)F)c3)c3ncc(N4CCOCC4)cn3)cc12` [Example 15, 5-(((3,5-bis(trifluoromethyl)benzyl)(5-morpholinopyrimidin-2-yl)amino)methyl)-N,N-bis(cyclopropylmethyl)-1,3-dimethyl-1H-pyrazolo[3,4-b]pyridin-6-amine] are within 0.2 log units of each other in pIC50: 7.34 for the first, 7.31 for the second.

`Cc1nc(N(Cc2cc(C(F)(F)F)cc(C(F)(F)F)c2)Cc2cc3c(C)nn(C(C)(C)C)c3nc2N(CC2CC2)CC2CC2)ncc1C(=O)O` [Example 18, 2-(((6-(Bis(cyclopropylmethyl)amino)-1-(tert-butyl)-3-methyl-1H-pyrazolo[3,4-b]pyridin-5-yl)methyl)(3,5-bis(trifluoromethyl)benzyl)amino)-4-methylpyrimidine-5-carboxylic acid] and `CCOC(=O)c1cnc(N(Cc2cc(C(F)(F)F)cc(C(F)(F)F)c2)Cc2cc3c(C)nn(C(C)(C)C)c3nc2N(CC2CC2)CC2CC2)nc1` [Example 19, Ethyl 2-(((6-(bis(cyclopropylmethyl)amino)-1-(tert-butyl)-3-methyl-1H-pyrazolo[3,4-b]pyridin-5-yl)methyl)(3,5-bis(trifluoromethyl)benzyl)amino)pyrimidine-5-carboxylate] are within 0.2 log units of each other in pIC50: 7.27 for the first, 7.15 for the second.
